Paper PMC1971749, “The effects of gonadotrophin releasing hormone analogues in prostate cancer are mediated through specific tumour receptors” (British Journal of Cancer, 1990)
Where two headings read alike, the source gives them in different places.

Columns and labels:
[1] = tested on: GnRH binding sites of LNCaP cells; assay: GnRH analogue binding to LNCaP cells (displacement of 125I-buserelin); parameters: species or system human; details: for displacement of labelled buserelin: specificity test, structurally unrelated peptides, LNCaP
Text: (§1) Br.~~~~ ~ ~ J. Cace (19) 62 969 ?amla resLd,19 The effects of gonadotrophin releasing hormone analogues in prostate cancer are mediated through specific tumour receptors A. Qayuml, W. Gullick2, R.C. Clayton3, K. Sikora' & J. Waxman' 'Department of Clinical Oncology and 2ICRF Oncology Group, Royal Postgraduate Medical School, and 3Clinical Endocrinology, MRC, Northwick Park Hospital, London, UK. Summary We have investigated the possibility of a direct regulatory effect of gonadotrophin releasing hormone (GnRH) analogues on prostatic cancer cell growth. Here we report high affinity binding (Kd = 50 nM) of a GnRH analogue resulting in biphasic growth modulation of the human androgen-sensitive prostatic cancer cell line LNCaP. […] Seventy-six human benign and malignant tumours were assayed following surgical resection. […] Cancer of the prostate is the second most common cause of malignancy among males. The treatment of prostatic cancer aims to reduce serum androgen concentrations. The long- acting agonist analogues of GnRH have been recently intro- duced as effective alternative therapies to orchiectomy and oestrogen treatment (Waxman, 1987). Their effect on andro- gen dependent cell growth is thought to be mediated through down-regulation of the pituitary-gonadal axis. GnRH agon- ist treatment leads to an initial increase in the serum levels of LH, FSH and androgens and this may be accompanied by tumour flare (Waxman et al., 1985). However, this exacerba- tion of symptoms is not temporally related to changes in serum LH, FSH and androgen concentrations. The differ- ences in the timing of these biochemical and clinical phenomena raises the possibility of a direct effect of GnRH analogues at the level of the tumour. This present study explored the direct effects of GnRH analogues on prostatic cancer cells in culture and in vivo. GnRH analogue binding to human prostatic cancer cells grown in culture and biopsy samples was first examined. GnRH binding sites were characterised in cell lines and in human tumours. The biological effects of GnRH on prostatic cancer cells and a possible autocrine stimulatory role of GnRH-like peptides were investigated. Materials and methods Cell culture The human androgen-sensitive prostatic cancer cell line LNCaP (isolated from lymph node metastasis; Horoszewicz et al., 1983) and the human androgen-insensitive prostatic cell line DU145 (isolated from brain metastasis) were obtained from the American Type Culture Collection. Cul- tures were maintained in exponential growth in RPMI 1640 medium containing 10% charcoal stripped fetal calf serum and 5 fig ml-I insulin. The fetal calf serum used in cell cul- ture medium was treated with dextran and charcoal to remove steroids. Charcoal 0.25% and dextran-T70 0.025% were added to the serum, which was heated at 56'C for 2 h and then centrifuged at 4,000 r.p.m. for O min. The pellet was discarded, serum was filtered through 0.4 ltm filters and used in culture medium. The treated serum was assayed for steroid hormones by the Hammersmith Hospital Endocrine Laboratories and found to be steroid free, Cultures were incubated at 37?C in a humidified atmosphere containing 5% CO2 and subcultured weekly using 0.1% EDTA to remove the cells from the plastic substratum. Under these conditions, the doubling times of DU145 and LNCaP cells were 72 and 144 h respectively. GnRH binding assays Exponentially growing cells were harvested with 0.1% EDTA, washed twice with PBS and counted using 0.2% trypan blue as an indicator. The cells were then resuspended in assay buffer (10 mM Tris-HCI pH 7.6, 1 mM dithiothreitol, 0.3% bovine serum albumin). One million cells per tube were incubated with 200,000 c.p.m. (0.1 nM) of 25I buserelin (125J_ D-Ser (TBU)6-LHRH-ethylamide) (Hoechst AG, Frankfurt), (specific activity 53,000 kBq;bg-') with or without varying concentrations of unlabelled buserelin (O.1-100 nM). Non- specific binding was estimated in the presence of 10 IM unlabelled buserelin. […]

[2] = tested on: GnRH binding sites of DU145 cells; assay: GnRH analogue binding to DU145 cells (displacement of 125I-buserelin); parameters: species or system human
Text: (§2) Br.~~~~ ~ ~ J. Cace (19) 62 969 ?amla resLd,19 The effects of gonadotrophin releasing hormone analogues in prostate cancer are mediated through specific tumour receptors A. Qayuml, W. Gullick2, R.C. Clayton3, K. Sikora' & J. Waxman' 'Department of Clinical Oncology and 2ICRF Oncology Group, Royal Postgraduate Medical School, and 3Clinical Endocrinology, MRC, Northwick Park Hospital, London, UK. Summary We have investigated the possibility of a direct regulatory effect of gonadotrophin releasing hormone (GnRH) analogues on prostatic cancer cell growth. Here we report high affinity binding (Kd = 50 nM) of a GnRH analogue resulting in biphasic growth modulation of the human androgen-sensitive prostatic cancer cell line LNCaP. […] Seventy-six human benign and malignant tumours were assayed following surgical resection. […] Cancer of the prostate is the second most common cause of malignancy among males. The treatment of prostatic cancer aims to reduce serum androgen concentrations. The long- acting agonist analogues of GnRH have been recently intro- duced as effective alternative therapies to orchiectomy and oestrogen treatment (Waxman, 1987). […] GnRH binding assays Exponentially growing cells were harvested with 0.1% EDTA, washed twice with PBS and counted using 0.2% trypan blue as an indicator. […]

[3] = tested on: LNCaP cells; assay: Biological response study, growth of LNCaP cells; assay type: cell-based, human
Text: as §1, with “Under these conditions, the doubling times of DU145 and LNCaP cells were 72 and 144 h respectively.” left out, “indicator.” for “indicator. The cells were then resuspended in assay buffer (10 mM Tris-HCI pH 7.6, 1 mM dithiothreitol, 0.3% bovine serum albumin). One million cells per tube were incubated with 200,000 c.p.m. (0.1 nM) of 25I buserelin (125J_ D-Ser (TBU)6-LHRH-ethylamide) (Hoechst AG, Frankfurt), (specific activity 53,000 kBq;bg-') with or without varying concentrations of unlabelled buserelin (O.1-100 nM). Non- specific binding was estimated in the presence of 10 IM unlabelled buserelin.”

[4] = tested on: DU145 cells; assay: Biological response study, growth of DU145 cells; assay type: cell-based, human; details: DU145 (androgen-insensitive) cells, 10 days
Text: as §2

[5] = GnRH radioimmunoassay, specificity; details: cross-reactivity control, Figure 1; sensitivity 0.25 fmol per tube
[6] = 100-fold excess of GnRH antagonist over buserelin, cell numbers, triplicate, representative experiment (Figure 6)

N[C@@H](CSSC[C@H](N)C(=O)Nc1ccc([N+](=O)[O-])cc1)C(=O)Nc1ccc([N+](=O)[O-])cc1 [L-cystine-bis-(4-nitroanilide)]
reduction of specific binding of buserelin by protease substrate ([1]; LNCaP cells, protease substrate final concentration 10 µM (printed "10 gsM")): 28% | reduction of specific binding of buserelin by protease substrate ([2]; protease substrate final concentration 10 µM (printed "10 gsM")): 68%

D-Ser (TBU)6-LHRH-ethylamide [buserelin]
Kd ([1]; Scatchard transformation of the same data, single class of binding sites in LNCaP cells, read-out: Kd (Scatchard plot)): 40 nM | binding sites per cell ([1]; Scatchard transformation, LNCaP cells): 35,000 binding sites per cell | Kd ([1]; intact LNCaP cells (10^6 per tube), 125I buserelin 0.1 nM, unlabelled buserelin, Tris-HCl pH 7.6, 3 h, 4 C, triplicate, representative experiment, read-out: Kd of GnRH analogue binding in LNCaP): 50 nM | Kd ([2]; 125I buserelin 0.1 nM, 3 h, 4 C, pH 7.6, abstract, read-out: Kd, low-affinity binding in DU145): 10000 nM | growth of the cells at higher concentrations ([3]; 10 days, GnRH analogue 100 nM): slightly inhibited | stimulation of growth relative to control cultures, total DNA content ([3]; 10 days, buserelin 1-10 nM, 10% charcoal stripped FCS, Burton's method, three experiments each in triplicate): ≤ 140% | stimulation of growth relative to control cultures, cell numbers ([3]; 10 days, buserelin 1-10 nM, 10% charcoal stripped FCS, three experiments each in triplicate): ≤ 140% | response to buserelin treatment (growth) [4]: did not show any response | response to buserelin treatment (growth) ([4]; listed as GnRH analogue): without any biological response

D-pGlul, D-Phe2, D- Trp3' 6) GnRH [GnRH antagonist]
block of inhibitory effect of buserelin [3, 6]: partially blocked | block of stimulatory effect of buserelin [3, 6]: partially blocked

bradykinin: structurally unrelated peptide (RPPGFSPFR; Bradykinin; UniProt P01042 381-389, looked up)
displacement of labelled buserelin [1]: did not displace labelled buserelin | GnRH-immunoreactivity in GnRH-RIA [5]: did not show any GnRH-immunoreactivity

oxytocin: structurally unrelated peptide
displacement of labelled buserelin [1]: did not displace labelled buserelin | GnRH-immunoreactivity in GnRH-RIA [5]: did not show any GnRH-immunoreactivity
